Data on nine molecules can be found in paper PMC10143306, “Seven New Lobane Diterpenoids from the Soft Coral Lobophytum catalai” (Marine Drugs, 2023).

The test system of series [1] is CuSO4-induced transgenic fluorescent zebrafish (Tg: zlyz-EGFP). Nature of the series: Anti-inflammatory assay in CuSO4-induced transgenic fluorescent zebrafish (macrophage count around neuromasts). It is filed as in vivo. Particulars: for Number of macrophages around nerve mound (mean ± SEM): Table S15. The method, then:
On account of the fact that research on the anti-inflammatory activity of lobane diterpenoids in zebrafish models has not been reported up to now, we attempted to identify lobane diterpenoids with anti-inflammatory activity in zebrafish models. The anti-inflammatory effect of compounds 1–7 was assessed in CuSO4-induced transgenic fluorescent zebrafish. CuSO4 can produce an intense acute inflammatory response in the neuromasts and mechanosensorial cells in the lateral line of zebrafish, stimulating the infiltration of macrophages. Thus, the number of macrophages surrounding the neuromasts in zebrafish can be observed and counted under a fluorescence microscope. Therefore, the anti-inflammatory activity of these lobane diterpenoids can be evaluated.
Figure 5 Anti-inflammatory assays of compounds 1–7. (a) Images of inflammatory sites in CuSO4-induced transgenic fluorescent zebrafish (Tg: zlyz-EGFP) expressing enhanced green fluorescent protein (EGFP) treated with compounds 1–7, using indomethacin as a positive control.
Healthy macrophage fluorescent transgenic zebrafish (Tg: zlyz-EGFP) were provided by the Biology Institute of Shandong Academy of Science (Jinan, China). The zebrafish maintenance and anti-inflammation assay were carried out as previously described. Each zebrafish larva was photographed using a fluorescence microscope (AXIO, Zom.V16), and the number of macrophages around the nerve mound was calculated using Image-Pro Plus 6.0 software (Rockville, MD, USA). One-way analysis of variance was conducted using GraphPad Prism 7.00 software (San Diego, CA, USA). Lobocatalens A–G (1–7) were tested for anti-inflammatory activities in the zebrafish models. Three dpf (days post-fertilization), healthy macrophage fluorescent transgenic zebrafish were used as animal models to evaluate the anti-inflammatory effects of compounds 1–7.

Series [2] is described as follows: Cytotoxicity assay, MTT method, K562. In kind it is cell-based, human. The following applies: human, K562 leukemia cells; K562 cell line, MTT method; read-out: Cytotoxic activity (IC50). The method, then:
(§1) Moreover, the cytotoxic activity of these isolated compounds (1–7) was evaluated against the human leukemia K562, normal human hepatocyte L-02, human pancreatic cancer ASPC-1, and human breast cancer MDA-MB-231 cell lines.
(§2) The MTT method was used to evaluate cytotoxicity against the K562 (human leukemia) cell line, and the SRB method was used to evaluate cytotoxicity against the L-02 (normal human hepatocytes), ASPC-1 (human pancreatic cancer), and MDA-MB-231 (human breast cancer) cell lines. As a positive control, Adriamycin (doxorubicin) was used.

Series [3] has as its system K562 (human leukemia) cell line. The series is described as follows: Cytotoxicity assay, MTT method, K562. It is filed as cell-based. Particulars: Homo sapiens, read-out: Inhibition rate (%); for inhibition at 30 µM: K562, K562, 30 μM; for inhibition at 1 µM: K562, K562, 1 μM, positive control. The procedure: as §1, §2
For orientation: Tetrazolium assays rely on reduction of a dye to a coloured formazan, in cell work by metabolically active cells.

A short description of series [4]: Cytotoxicity assay, SRB method, L-02. It is filed as cell-based, human. Particulars: human, L-02 normal hepatocyte cells; L-02 cell line, SRB method; read-out: Cytotoxic activity (IC50). The method, then: as §1, §2
On the technique in general: Sulforhodamine B stains cellular protein and so reports cell mass.

Series [5] concerns L-02 (normal human hepatocytes) cell line. Nature of the series: Cytotoxicity assay, SRB method, L-02. It is filed as cell-based. Particulars: Homo sapiens, Hepatocyte, Table S16, read-out: Inhibition rate (%); for inhibition at 30 µM: L-02, 30 μM. The procedure: as §1, §2
The nature of series [6]: Cytotoxicity assay, SRB method, MDA-MB-231. In kind it is cell-based, human. Particulars: human, MDA-MB-231 breast cancer cells; MDA-MB-231 cell line, SRB method; read-out: Cytotoxic activity (IC50). The method, then: as §1, §2
The test system of series [7] is MDA-MB-231 (human breast cancer) cell line. Nature of the series: Cytotoxicity assay, SRB method, MDA-MB-231. The following applies: Homo sapiens, Table S16, read-out: Inhibition rate (%); for inhibition at 30 µM: MDA-MB-231, 30 μM. It is filed as cell-based. The method, then: as §1, §2
The nature of series [8]: Cytotoxicity assay, SRB method, ASPC-1. It is filed as cell-based, human. Particulars: human, ASPC-1 pancreatic cancer cells; ASPC-1 cell line, SRB method; read-out: Cytotoxic activity (IC50). The procedure:
as §1, §2

Series [9] concerns ASPC-1 (human pancreatic cancer) cell line. The series is described as follows: Cytotoxicity assay, SRB method, ASPC-1. It is filed as cell-based. The following applies: Homo sapiens, ASPC1, Table S16, read-out: Inhibition rate (%); for inhibition at 30 µM: ASPC-1, 30 μM. The method, then:
as §1, §2

Setting [10] is: Danio rerio, Macrophage, 20 μM, Table S15, read-out: Inhibition rate.

Like-named read-outs stand apart in the source and are kept apart here. Where only a bound is given, the exact number is not on record here.

As to `C=CC1(C)CCC(C2=CCC3OC2OC3(C)C)CC1C(=C)C` (stereo not drawn) [Compound 1, Lobocatalen A], the “Number of macrophages around nerve mound (mean ± SEM)” value (from here on “Number … (mean ± SEM)”) in series [1] (20 μM) came out at 25.67 ± 3.14. Besides, in series [1] (setting [10]), the inhibition at 20 µM came to 19.5%. Moreover, the IC50 in [2], in [4] and in series [6] was more than 30 µM throughout. Besides, the results for the inhibition at 30 µM in [3] (Table S16), in [5] and in series [7] were 39.9%, 24.9% and 21.9%, respectively.
On to `C=CC1(C)CCC(C2=CCC(C(C)(C)O)OC2O)CC1C(=C)C` (stereo not drawn) [Compound 2, Lobocatalen B], for which the “Number … (mean ± SEM)” value in series [1] (20 μM) stood at 30.00 ± 3.047. The inhibition at 20 µM in series [1] (setting [10]) turned out to be 5.93%. For the same molecule, the IC50 in series [2], in [4] and in series [6] was more than 30 µM throughout. For the same molecule, the values for the inhibition at 30 µM in series [3] (Table S16), in series [5] and in series [7] were 48.7%, 30.2% and 24.2%, respectively.
For `C=CC1(C)CCC(C2=COC(C(C)(C)O)CC2=O)CC1C(=C)C` (stereo not drawn) [Compound 3, Lobocatalen C], the “Number … (mean ± SEM)” value in [1] (20 μM) amounted to 25.30 ± 1.904. Besides, the inhibition at 20 µM in series [1] (setting [10]) was determined as 20.7%. Also, the IC50 in [2], in [4], in series [8] and in [6] was more than 30 µM in each case. For the same molecule, the inhibition at 30 µM in series [3] (Table S16) was 43.5%; in [5], 22.1%; in series [9], 18.6%; in series [7], 19.9%.
Regarding `C=CC1(C)CCC(C(C)=CC(=O)CC(C)(C)O)CC1C(=C)C` (stereo not drawn) [Compound 4, Lobocatalen D], the “Number … (mean ± SEM)” value in series [1] (20 μM) is recorded as 22.22 ± 2.737. The inhibition at 20 µM in [1] (setting [10]) turned out to be 30.3%. Also, the 50% inhibitory concentration (IC50) in series [2], in series [4], in series [8] and in [6] was more than 30 µM each time. Further, the inhibition at 30 µM in series [3] (Table S16) turned out to be 36.7%; in series [5] it was 21.6%; in [9] it was 18.9%; in [7], 18.4%.
For the molecule `C=CC1(C)CCC(C(=C)CCC(=O)C(C)(C)O)CC1C(=C)C` (stereo not drawn) [Compound 5, Lobocatalen E], the “Number … (mean ± SEM)” value in series [1] (20 μM) came out at 21.89 ± 3.199. Further, in series [1] (setting [10]), the inhibition at 20 µM stood at 31.4%. Further, the IC50 in series [2] is more than 30 µM. In series [3] (Table S16), the inhibition at 30 µM turned out to be 34.3%.
As to `C=CC1(C)CCC(C(C)=CC=CC(C)=O)CC1C(=C)C` (stereo not drawn) [Compound 6, Lobocatalen F], the “Number … (mean ± SEM)” value in [1] (20 μM) worked out at 26.2 ± 2.356. Moreover, in series [1] (setting [10]), the inhibition at 20 µM was found to be 17.8%. In series [4], the IC50 was more than 30 µM. Also, the inhibition at 30 µM in series [5] was determined as 25.4%.
For the molecule `C=CC1(C)CCC(C(=O)C=CC(OC(C)=O)C(C)(C)O)CC1C(=C)C` (stereo not drawn) [Compound 7, Lobocatalen G], in series [1] (20 μM), the “Number … (mean ± SEM)” value was determined as 18.6 ± 1.805. Besides, the “Anti-inflammatory activity (in words)” value in series [1] (20 μM, migration and number of macrophages surrounding the neuromasts) is reported as “moderate anti-inflammatory activity”. The inhibition at 20 µM in [1] (setting [10]) stood at 41.7%. The half-maximal inhibitory concentration (IC50) in [2] was 28 µM; in [4], more than 30 µM; in series [8] it was more than 30 µM; in series [6], more than 30 µM. Besides, the inhibition at 0.9375 µM in series [3] (K562, K562, 0.9375 μM, Table S17) stood at 5.87%. The inhibition at 1.875 µM in series [3] (K562, K562, 1.875 μM, Table S17) is 9.55%. In addition, the inhibition at 3.75 µM in series [3] (K562, K562, 3.75 μM, Table S17) came out at 11.6%. In addition, the inhibition at 7.5 µM in series [3] (K562, K562, 7.5 μM, Table S17) was 15.5%. In series [3] (K562, K562, 15 μM, Table S17), the inhibition at 15 µM came to 21%. Further, the inhibition at 30 µM amounted to 63.5% in [3] (Table S16); 73.3% in series [3] (Table S17); 29.8% in [5]; 17.5% in [9]; 10.4% in series [7].
For the molecule `COc1ccc2c(c1)c(CC(=O)O)c(C)n2C(=O)c1ccc(Cl)cc1` [Indomethacin, reference compound], in series [1] (40 μM, positive control), the “Number … (mean ± SEM)” value is reported as 11.88 ± 1.575. The inhibition at 40 µM in series [1] (Danio rerio, Macrophage, 40 μM, positive control, Table S15, read-out: Inhibition rate) was 62.8%.
On to `COc1cccc2c1C(=O)c1c(O)c3c(c(O)c1C2=O)C[C@@](O)(C(=O)CO)C[C@@H]3O[C@H]1C[C@H](N)[C@H](O)[C@H](C)O1` [doxorubicin, reference compound], for which the IC50 in [2], in series [4], in series [8] and in series [6] was less than 1 µM throughout. In addition, the inhibition at 1 µM in series [3] (Table S16) worked out at 100%; in series [3] (Table S17) it was 100%; in series [5] (L-02, 1 μM, positive control), 83%; in series [9] (ASPC-1, 1 μM, positive control), 52%; in [7] (MDA-MB-231, 1 μM, positive control), 55.9%.

One may read the inhibition as the change of the read-out against control, counted positive when it falls. What is called IC50 is the concentration needed to halve the response being measured.
